Laboratory results taken from patent US7915281B2, “Isoxazole, dihydroisoxazole, and oxadiazole substituted imidazo ring compounds and method” (3M Innovative Properties Company, priority 2004, dated 2011).

`CCOCc1nc2c(N)nc3ccccc3c2n1CC1CC(C)=NO1` (stereo not shown) [Example 1, 2-(Ethoxymethyl)-1-[(3-methyl-4,5-dihydroisoxazol-5-yl)methyl]-1H-imidazo[4,5-c]quinolin-4-amine] gave a melting point of 204 to 205 °C. `CCOCc1nc2c(N)nc3ccccc3c2n1CC1CC(c2ccccc2)=NO1` (stereo not shown) [Example 2, 2-(Ethoxymethyl)-1-[(3-phenyl-4,5-dihydroisoxazol-5-yl)methyl]-1H-imidazo[4,5-c]quinolin-4-amine] gave a melting point of 235 to 237 °C. `CCOCc1nc2c(N)nc3ccccc3c2n1Cc1cc(-c2ccccc2)no1` [Example 3, 2-(Ethoxymethyl)-1-[(3-phenylisoxazol-5-yl)methyl]-1H-imidazo[4,5-c]quinolin-4-amine] gave a melting point of 215 to 216 °C. Compound `CCOCc1nc2c(N)nc3ccccc3c2n1Cc1cc(C)no1` [Example 4, 2-(Ethoxymethyl)-1-[(3-methylisoxazol-5-yl)methyl]-1H-imidazo[4,5-c]quinolin-4-amine] has a melting point of 178 to 180 °C. Work on `CCOCc1nc2c(N)nc3ccccc3c2n1Cc1cc(-c2cccnc2)no1` [Example 5, 2-(Ethoxymethyl)-1-[(3-pyridin-3-ylisoxazol-5-yl)methyl]-1H-imidazo[4,5-c]quinolin-4-amine] yielded a melting point of 240 to 242 °C. Work on `CCOCc1nc2c(N)nc3ccccc3c2n1CCCc1cc(-c2cccnc2)no1` [Example 6, 2-(Ethoxymethyl)-1-[3-(3-pyridin-3-ylisoxazol-5-yl)propyl]-1H-imidazo[4,5-c]quinolin-4-amine] yielded a melting point of 199 to 200 °C. Work on `CCOCc1nc2c(N)nc3ccccc3c2n1CCCc1cc(-c2ccccc2)no1` [Example 7, 2-(Ethoxymethyl)-1-[3-(3-phenylisoxazol-5-yl)propyl]-1H-imidazo[4,5-c]quinolin-4-amine] yielded a melting point of 171 to 172 °C. Work on `CCOCc1nc2c(N)nc3ccccc3c2n1CCCc1cc(C)no1` [Example 8, 2-(Ethoxymethyl)-1-[3-(3-methylisoxazol-5-yl)propyl]-1H-imidazo[4,5-c]quinolin-4-amine] yielded a melting point of 163 to 164 °C. For `CCOCc1nc2c(N)nc(C)c(C)c2n1Cc1cc(-c2cccnc2)no1` [Example 9, 2-(Ethoxymethyl)-6,7-dimethyl-1-[(3-pyridin-3-ylisoxazol-5-yl)methyl]-1H-imidazo[4,5-c]pyridin-4-amine], the melting point was 189 to 191 °C. With `CCOCc1nc2c(N)nc3ccccc3c2n1CCN1C(C)=NOC1(C)C` [Example 10, 2-Ethoxymethyl-1-[2-(3,5,5-trimethyl-1,2,4-oxadiazol-4(5H)-yl)ethyl]-1H-imidazo[4,5-c]quinolin-4-amine] the melting point was 204 to 205 °C. Compound `Nc1nc2cccnc2c2c1ncn2Cc1cc(-c2ccc(F)cc2)no1` [Example 11, 1-{[3-(4-Fluorophenyl)isoxazol-5-yl]methyl}-1H-imidazo[4,5-c][1,5]naphthyridin-4-amine] has a melting point of 265 to 266 °C. Work on `CCOCc1nc2c(N)nc3cccnc3c2n1Cc1cc(-c2ccc(F)cc2)no1` [Example 12, 2-(Ethoxymethyl)-1-{[3-(4-fluorophenyl)isoxazol-5-yl]methyl}-1H-imidazo[4,5-c][1,5]naphthyridin-4-amine] yielded a melting point of 190 to 191 °C. Compound `Cc1nc2c(N)nc3cccnc3c2n1Cc1cc(-c2ccc(F)cc2)no1` [Example 13, 1-{[3-(4-Fluorophenyl)isoxazol-5-yl]methyl}-2-methyl-1H-imidazo[4,5-c][1,5]naphthyridin-4-amine] has a melting point of 239 to 240 °C. With `CCCc1nc2c(N)nc3cccnc3c2n1Cc1cc(-c2ccc(F)cc2)no1` [Example 14, 1-{[3-(4-Fluorophenyl)isoxazol-5-yl]methyl}-2-propyl-1H-imidazo[4,5-c][1,5]naphthyridin-4-amine] the melting point was 238 to 239 °C. With `Nc1nc2cccnc2c2c1nc(CO)n2Cc1cc(-c2ccc(F)cc2)no1` [Example 15, (4-Amino-1-{[3-(4-fluorophenyl)isoxazol-5-yl]methyl}-1H-imidazo[4,5-c][1,5]naphthyridin-2-yl)methanol] the melting point was 247 to 248 °C. With `CCOCc1nc2c(N)nc3ccccc3c2n1CCN1C(C)=NOC12CCCC2` [Example 16, 2-(Ethoxymethyl)-1-[2-(3-methyl-1-oxa-2,4-diazaspiro[4,4]non-2-en-4-yl)ethyl]-1H-imidazo[4,5-c]quinolin-4-amine] the melting point was 211 to 213 °C. Compound `Nc1nc2c(c3c1ncn3Cc1cc(-c3ccc(F)cc3)no1)NCCC2` [Example 17, 1-{[3-(4-Fluorophenyl)isoxazol-5-yl]methyl}-6,7,8,9-tetrahydro-1H-imidazo[4,5-c][1,5]naphthyridin-4-amine] has a melting point of 227 to 228 °C. Compound `Cc1nc(N)c2ncn(Cc3cc(-c4ccc(F)cc4)no3)c2c1C` [Example 18, 1-{[3-(4-Fluorophenyl)isoxazol-5-yl]methyl}-6,7-dimethyl-1H-imidazo[4,5-c]pyridin-4-amine] has a melting point of 244 to 246 °C. With `CCOCc1nc2c(N)nc(C)c(C)c2n1Cc1cc(-c2ccc(F)cc2)no1` [Example 19, 2-(Ethoxymethyl)-1-{[3-(4-fluorophenyl)isoxazol-5-yl]methyl}-6,7-dimethyl-1H-imidazo[4,5-c]pyridin-4-amine] the melting point was 246 to 247 °C. Compound `Cc1nc(N)c2nc(CO)n(Cc3cc(-c4ccc(F)cc4)no3)c2c1C` [Example 20, (4-Amino-1-{[3-(4-fluorophenyl)isoxazol-5-yl]methyl}-6,7-dimethyl-1H-imidazo[4,5-c]pyridin-2-yl)methanol] has a melting point of 164 to 165 °C. `CCc1nc2c(N)nc(C)c(C)c2n1Cc1cc(-c2ccc(F)cc2)no1` [Example 21, 2-Ethyl-1-{[3-(4-fluorophenyl)isoxazol-5-yl]methyl}-6,7-dimethyl-1H-imidazo[4,5-c]pyridin-4-amine] gave a melting point of 255 to 256 °C. For `Cc1nc(N)c2nc(C)n(Cc3cc(-c4ccc(F)cc4)no3)c2c1C` [Example 22, 1-{[3-(4-Fluorophenyl)isoxazol-5-yl]methyl}-2,6,7-trimethyl-1H-imidazo[4,5-c]pyridin-4-amine], the melting point was 278 to 279 °C. Work on `CCCc1nc2c(N)nc(C)c(C)c2n1Cc1cc(-c2ccc(F)cc2)no1` [Example 23, 1-{[3-(4-Fluorophenyl)isoxazol-5-yl]methyl}-6,7-dimethyl-2-propyl-1H-imidazo[4,5-c]pyridin-4-amine] yielded a melting point of 227 to 229 °C. `Fc1ccc(-c2cc(Cn3cnc4c(Cl)nc5ccccc5c43)on2)cc1` [Example 24, 4-Chloro-1-{[3-(4-fluorophenyl)isoxazol-5-yl]methyl}-1H-imidazo[4,5-c]quinoline] gave a melting point of 219 to 220 °C. `Nc1nc2ccccc2c2c1ncn2Cc1cc(-c2ccc(F)cc2)no1` [Example 25, 1-{[3-(4-Fluorophenyl)isoxazol-5-yl]methyl}-1H-imidazo[4,5-c]quinolin-4-amine] showed a melting point of 259 to 260 °C. `CCc1nc2c(N)nc3ccccc3c2n1Cc1cc(-c2ccc(F)cc2)no1` [Example 26, 2-Ethyl-1-{[3-(4-fluorophenyl)isoxazol-5-yl]methyl}-1H-imidazo[4,5-c]quinolin-4-amine] showed a melting point of 232 to 233 °C. Work on `CCCc1nc2c(N)nc3ccccc3c2n1Cc1cc(-c2ccc(F)cc2)no1` [Example 27, 1-{[3-(4-Fluorophenyl)isoxazol-5-yl]methyl}-2-propyl-1H-imidazo[4,5-c]quinolin-4-amine] yielded a melting point of 226 to 227 °C. `Cc1nc2c(N)nc3ccccc3c2n1Cc1cc(-c2ccc(F)cc2)no1` [Example 28, 1-{[3-(4-Fluorophenyl)isoxazol-5-yl]methyl}-2-methyl-1H-imidazo[4,5-c]quinolin-4-amine] showed a melting point of 294 to 296 °C. Work on `CCOCc1nc2c(Cl)nc3ccccc3c2n1Cc1cc(-c2ccc(F)cc2)no1` [Example 29, 4-Chloro-2-(ethoxymethyl)-1-{[3-(4-fluorophenyl)isoxazol-5-yl]methyl}-1H-imidazo[4,5-c]quinoline] yielded a melting point of 189 to 190 °C. For `CCOCc1nc2c(N)nc3ccccc3c2n1Cc1cc(-c2ccc(F)cc2)no1` [Example 30, 2-(Ethoxymethyl)-1-{[3-(4-fluorophenyl)isoxazol-5-yl]methyl}-1H-imidazo[4,5-c]quinolin-4-amine], the melting point was 203 to 204 °C. Compound `Nc1nc2ccccc2c2c1nc(CO)n2Cc1cc(-c2ccc(F)cc2)no1` [Example 31, (4-Amino-1-{[3-(4-fluorophenyl)isoxazol-5-yl]methyl}-1H-imidazo[4,5-c]quinolin-2-yl)methanol] has a melting point of 262 to 263 °C. Compound `Nc1nc2ccccc2c2c1nc(CF)n2Cc1cc(-c2ccc(F)cc2)no1` [Example 32, 2-(Fluoromethyl)-1-{[3-(4-fluorophenyl)isoxazol-5-yl]methyl}-1H-imidazo[4,5-c]quinolin-4-amine] has a melting point of 192 to 193 °C. In the case of `CCOCc1nc2c(N)nc3ccccc3c2n1CCc1cc(-c2ccc(F)cc2)no1` [Example 33, 2-(Ethoxymethyl)-1-{2-[3-(4-fluorophenyl)isoxazol-5-yl]ethyl}-1H-imidazo[4,5-c]quinolin-4-amine], the melting point is reported as 180 to 181 °C. For `CCCc1nc2c(N)nc3ccccc3c2n1CCc1cc(-c2ccc(F)cc2)no1` [Example 34, 1-{2-[3-(4-Fluorophenyl)isoxazol-5-yl]ethyl}-2-propyl-1H-imidazo[4,5-c]quinolin-4-amine], the melting point was 208 to 209 °C. With `CCCCc1cc(Cn2cnc3c(N)nc4ccccc4c32)no1` [Example 35, 1-[(5-Butylisoxazol-3-yl)methyl]-1H-imidazo[4,5-c]quinolin-4-amine] the melting point was 201 to 203 °C. With `CCCc1nc2c(N)nc3ccccc3c2n1Cc1cc(-c2cccnc2)on1` [Example 36, 2-Propyl-1-[(5-pyridin-3-ylisoxazol-3-yl)methyl]-1H-imidazo[4,5-c]quinolin-4-amine] the melting point was 206 to 207 °C. `CCOCc1nc2c(N)nc3ccccc3c2n1Cc1cc(-c2ccccc2)on1` [Example 37, 2-(Ethoxymethyl)-1-[(5-phenylisoxazol-3-yl)methyl]-1H-imidazo[4,5-c]quinolin-4-amine] showed a melting point of 221 to 223 °C.
